According to paper PMC10629583, “Specific inhibition of an anticancer target, polo-like kinase 1, by allosterically dismantling its mechanism of substrate recognition” (Proceedings of the National Academy of Sciences of the …, 2023):

How the values were obtained:
Test in all cases: PDSP off-target binding screen
Settings in all cases: for inhibition at 10 µM: read-out: Primary screen AVE(%inhib)±SD; for Ki: read-out: Secondary screen Ki
[1] = target: T1, 5-HT1E (Homo sapiens, UniProt P28566)
T1 construct: NIMH Psychoactive Drug Screening Program (UNC)
T1 sequence (P28566 whole entry): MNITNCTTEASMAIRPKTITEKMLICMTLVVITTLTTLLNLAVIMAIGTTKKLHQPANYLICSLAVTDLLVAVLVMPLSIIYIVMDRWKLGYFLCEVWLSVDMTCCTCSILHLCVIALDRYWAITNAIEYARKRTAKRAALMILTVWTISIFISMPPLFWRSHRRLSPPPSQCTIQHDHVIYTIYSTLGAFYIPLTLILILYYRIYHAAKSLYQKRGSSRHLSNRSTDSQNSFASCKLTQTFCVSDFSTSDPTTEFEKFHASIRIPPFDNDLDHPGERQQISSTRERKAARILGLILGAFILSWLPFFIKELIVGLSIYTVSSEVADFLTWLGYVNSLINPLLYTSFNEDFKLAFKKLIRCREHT
From the text: (§1) PDSP no. Compound Interactions (Ki, µM)
(§2) 60477 Allopole-A None observed.
(§3) trigger a secondary screen at that receptor.

[2] = target: H1 (Homo sapiens, UniProt P35367)
H1, sequence (P35367 whole entry): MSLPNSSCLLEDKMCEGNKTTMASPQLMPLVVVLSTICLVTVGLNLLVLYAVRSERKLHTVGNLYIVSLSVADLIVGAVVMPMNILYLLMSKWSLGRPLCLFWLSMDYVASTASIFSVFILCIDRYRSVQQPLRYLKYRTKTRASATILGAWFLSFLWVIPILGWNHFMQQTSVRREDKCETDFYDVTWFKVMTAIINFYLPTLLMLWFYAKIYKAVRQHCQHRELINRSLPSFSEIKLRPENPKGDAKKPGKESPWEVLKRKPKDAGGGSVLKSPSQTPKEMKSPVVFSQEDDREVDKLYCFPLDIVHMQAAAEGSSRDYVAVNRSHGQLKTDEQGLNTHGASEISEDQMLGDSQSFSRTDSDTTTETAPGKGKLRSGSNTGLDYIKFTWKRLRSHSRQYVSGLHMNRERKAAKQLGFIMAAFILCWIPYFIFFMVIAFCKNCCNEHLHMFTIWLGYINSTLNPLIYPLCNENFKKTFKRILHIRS
From the text: as §1, §2, §3

[3] = target: T2, 5-HT1D (Homo sapiens, UniProt P28221)
T2 construct: NIMH Psychoactive Drug Screening Program (UNC)
T2 sequence (P28221 whole entry): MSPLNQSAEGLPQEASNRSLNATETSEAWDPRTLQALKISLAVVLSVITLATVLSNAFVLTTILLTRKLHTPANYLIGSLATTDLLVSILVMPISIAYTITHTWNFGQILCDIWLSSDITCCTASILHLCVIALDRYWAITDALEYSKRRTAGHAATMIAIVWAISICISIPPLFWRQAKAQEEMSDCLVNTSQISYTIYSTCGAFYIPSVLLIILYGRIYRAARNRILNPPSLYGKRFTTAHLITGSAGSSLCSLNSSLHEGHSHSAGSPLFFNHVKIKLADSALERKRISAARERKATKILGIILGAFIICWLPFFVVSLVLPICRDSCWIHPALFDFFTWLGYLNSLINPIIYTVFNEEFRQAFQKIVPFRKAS
From the text: as §1, §2, §3

[4] = target: H2 (Homo sapiens, UniProt P25021)
H2, sequence (P25021 whole entry): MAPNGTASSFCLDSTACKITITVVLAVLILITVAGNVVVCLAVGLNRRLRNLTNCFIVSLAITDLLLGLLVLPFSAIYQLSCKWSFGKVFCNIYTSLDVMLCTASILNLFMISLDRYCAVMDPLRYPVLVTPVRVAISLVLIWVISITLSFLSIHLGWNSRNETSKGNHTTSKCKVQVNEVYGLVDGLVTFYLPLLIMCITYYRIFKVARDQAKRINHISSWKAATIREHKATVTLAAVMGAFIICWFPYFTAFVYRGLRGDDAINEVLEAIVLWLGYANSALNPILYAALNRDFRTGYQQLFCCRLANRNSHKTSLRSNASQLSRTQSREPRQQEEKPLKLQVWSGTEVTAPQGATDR
From the text: as §1, §2, §3

[5] = target: Sigma 2 (Homo sapiens, UniProt Q5BJF2)
Sigma 2, sequence (Q5BJF2 whole entry): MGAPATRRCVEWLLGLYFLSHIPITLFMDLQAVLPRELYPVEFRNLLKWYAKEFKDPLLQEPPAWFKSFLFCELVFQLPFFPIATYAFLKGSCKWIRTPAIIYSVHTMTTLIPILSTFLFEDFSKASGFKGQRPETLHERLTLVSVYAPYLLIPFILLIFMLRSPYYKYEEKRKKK
From the text: as §1, §2, §3

[6] = target: T3, M2 (Homo sapiens, UniProt P08172)
T3 sequence (P08172 1-466): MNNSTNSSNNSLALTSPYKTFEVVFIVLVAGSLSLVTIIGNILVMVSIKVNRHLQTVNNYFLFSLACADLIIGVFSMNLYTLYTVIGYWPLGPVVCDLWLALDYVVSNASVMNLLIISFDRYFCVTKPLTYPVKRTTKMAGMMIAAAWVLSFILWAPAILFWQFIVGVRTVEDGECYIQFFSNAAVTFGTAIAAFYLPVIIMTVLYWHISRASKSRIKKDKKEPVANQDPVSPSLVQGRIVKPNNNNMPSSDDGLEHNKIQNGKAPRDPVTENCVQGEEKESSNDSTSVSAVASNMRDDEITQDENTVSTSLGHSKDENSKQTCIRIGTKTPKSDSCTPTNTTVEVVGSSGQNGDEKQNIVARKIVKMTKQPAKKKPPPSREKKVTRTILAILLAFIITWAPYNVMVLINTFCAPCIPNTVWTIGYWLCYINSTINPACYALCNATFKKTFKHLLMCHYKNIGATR
From the text: as §1, §2, §3

[7] = target: T4, D4 (Homo sapiens, UniProt P21917)
T4 sequence (P21917 1-419): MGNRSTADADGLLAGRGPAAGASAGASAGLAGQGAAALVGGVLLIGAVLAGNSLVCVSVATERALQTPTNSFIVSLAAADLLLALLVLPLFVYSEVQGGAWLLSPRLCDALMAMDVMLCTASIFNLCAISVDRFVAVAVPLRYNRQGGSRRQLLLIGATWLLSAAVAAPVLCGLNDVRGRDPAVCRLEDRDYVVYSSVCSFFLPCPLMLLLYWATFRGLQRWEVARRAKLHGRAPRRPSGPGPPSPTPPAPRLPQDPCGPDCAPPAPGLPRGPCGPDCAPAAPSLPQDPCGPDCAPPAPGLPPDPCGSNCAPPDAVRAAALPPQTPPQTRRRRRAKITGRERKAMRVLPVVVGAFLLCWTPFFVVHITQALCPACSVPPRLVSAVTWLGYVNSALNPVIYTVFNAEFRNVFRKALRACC
From the text: as §1, §2, §3

[8] = target: T5, Alpha2C (Homo sapiens, UniProt P18825)
T5 sequence (P18825 1-462): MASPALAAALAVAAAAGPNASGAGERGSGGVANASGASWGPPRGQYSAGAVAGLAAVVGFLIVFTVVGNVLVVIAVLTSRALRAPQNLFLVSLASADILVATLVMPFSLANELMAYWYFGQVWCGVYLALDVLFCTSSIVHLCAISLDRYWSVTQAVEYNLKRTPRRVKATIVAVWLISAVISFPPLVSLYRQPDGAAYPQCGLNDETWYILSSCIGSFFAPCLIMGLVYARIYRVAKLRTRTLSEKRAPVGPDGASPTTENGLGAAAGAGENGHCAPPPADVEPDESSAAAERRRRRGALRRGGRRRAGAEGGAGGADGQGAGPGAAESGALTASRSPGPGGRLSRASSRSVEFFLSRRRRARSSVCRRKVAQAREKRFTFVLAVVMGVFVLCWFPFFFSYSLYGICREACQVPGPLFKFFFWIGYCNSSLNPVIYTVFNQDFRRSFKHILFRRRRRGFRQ
From the text: as §1, §2, §3

[9] = target: T6, Alpha2B (Homo sapiens, UniProt P18089)
T6 sequence (P18089 1-450): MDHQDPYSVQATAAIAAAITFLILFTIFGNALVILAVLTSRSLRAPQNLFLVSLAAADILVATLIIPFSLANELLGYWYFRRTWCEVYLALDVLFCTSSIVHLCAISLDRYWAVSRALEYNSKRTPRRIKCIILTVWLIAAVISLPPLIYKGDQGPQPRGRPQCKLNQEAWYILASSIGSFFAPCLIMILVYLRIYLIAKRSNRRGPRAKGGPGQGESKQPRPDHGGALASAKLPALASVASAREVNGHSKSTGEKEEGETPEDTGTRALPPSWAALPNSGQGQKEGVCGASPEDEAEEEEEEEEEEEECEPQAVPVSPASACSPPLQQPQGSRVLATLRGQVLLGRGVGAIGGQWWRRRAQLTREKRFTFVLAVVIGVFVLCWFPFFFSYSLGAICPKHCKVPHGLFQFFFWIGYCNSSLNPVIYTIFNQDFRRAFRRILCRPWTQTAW
From the text: as §1, §2, §3

[10] = target: T7, Alpha1D (Homo sapiens, UniProt P25100)
T7 sequence (P25100 1-572): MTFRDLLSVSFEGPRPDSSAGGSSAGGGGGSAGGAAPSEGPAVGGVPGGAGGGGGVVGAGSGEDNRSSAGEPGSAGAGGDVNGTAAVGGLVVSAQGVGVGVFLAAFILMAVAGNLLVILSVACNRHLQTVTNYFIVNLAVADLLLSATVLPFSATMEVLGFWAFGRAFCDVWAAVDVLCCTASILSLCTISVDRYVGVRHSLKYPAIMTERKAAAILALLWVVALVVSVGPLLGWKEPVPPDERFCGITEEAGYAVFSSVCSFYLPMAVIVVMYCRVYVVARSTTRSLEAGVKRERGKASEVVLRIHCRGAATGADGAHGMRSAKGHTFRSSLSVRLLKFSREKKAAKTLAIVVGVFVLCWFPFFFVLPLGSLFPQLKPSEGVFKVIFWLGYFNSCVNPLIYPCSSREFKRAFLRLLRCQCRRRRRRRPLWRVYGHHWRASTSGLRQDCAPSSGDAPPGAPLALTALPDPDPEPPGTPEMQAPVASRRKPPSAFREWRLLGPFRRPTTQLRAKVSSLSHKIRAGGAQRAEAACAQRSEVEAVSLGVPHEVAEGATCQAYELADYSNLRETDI
From the text: as §1, §2, §3

Structure (SMILES) | inhibition at 10 µM [1] [%] | Ki [1] [µM] | inhibition at 10 µM [2] [%] | Ki [2] [µM] | inhibition at 10 µM [3] [%] | Ki [3] [µM] | inhibition at 10 µM [4] [%] | Ki [4] [µM] | inhibition at 10 µM [5] [%] | Ki [5] [µM] | inhibition at 10 µM [6] [%] | Ki [6] [µM] | inhibition at 10 µM [7] [%] | Ki [7] [µM] | inhibition at 10 µM [8] [%] | Ki [8] [µM] | inhibition at 10 µM [9] [%] | Ki [9] [µM] | inhibition at 10 µM [10] [%] | Ki [10] [µM]
O=c1c2sc(Cl)cc2n2c(=S)[nH]nc2n1CC1CC1 [Allopole-A] | 31.3 ± 7.6 | > 10 | 11.5 ± 2.8 | > 10 | 22.5 ± 25.6 | > 10 | -27.4 ± 17.1 | > 10 | 40.6 ± 9.5 | > 10 | 21.1 ± 19.7 | > 10 | -24.3 ± 4.4 | > 10 | 10.6 ± 4.2 | > 10 | -6.4 ± 7.1 | > 10 | -9.9 ± 23.4 | > 10
Cn1cnc([N+](=O)[O-])c1Sc1nnc2n(CC3CC3)c(=O)c3sc(Cl)cc3n12 [Allopole] | 22.2 ± 10.5 | > 10 | 35.8 ± 11.9 | > 10 | 32.8 ± 27.1 | > 10 | -16.4 ± 21.5 | > 10 | 40.7 ± 5.8 | > 10 | 9.3 ± 19.3 | > 10 | 12.6 ± 4.9 | > 10 | 6.4 ± 7.5 | > 10 | 8.3 ± 16.4 | > 10 | -15.1 ± 19.8 | > 10
